# Measurements reported in patent US9511072B2, “Methods of modulating cell proliferation and cyst formation in polycystic kidney and liver diseases” (The Medical College of Wisconsin, Inc., priority 2006, dated 2016).
# “And” between values parts separate entries of the source, which are not always exact repeats. Equal values may be shown once. “Also recorded” adds a separate entry of the source.
# Columns and labels:
# BPK mice = assay: Chronic HET-0016 treatment of cystic BPK mice (kidney mass, cysts); type: in vivo, mouse
# Description: This study was conducted using “immortalized” BPK mice as previous described by Sweeney W E et al. (Am J Physiol Cell Physiol, 281:C1695-705, 2001). In brief, BPK female heterozygotes (bpk^+/−) were bred with H-2k^b-ts-A58 transgenic males. Compound heterozygotes (bpk^+/−; H-2K^b-ts-A58^+/−) were identified by PCR and backcrossing to produce cystic offspring. Compound heterozygotes were mated to generate cystic (bpk^−/−; H-2K^b-ts-A58^+/±) and non-cystic (bpk^+/−; H-2K^b-ts-A58^+/±) offspring carrying at least one copy of the Immorto transgene (bpk^−/−; H-2K^b-ts-A58^+/±). All of the mice were genotyped for the H-2K^b-ts-A58 transgene by PCR analysis of DNA extracts from tail sections as described in Takacs-Jarrett M et al. Am J Physiol, 275:F802-11, 1998.
# Kidney and liver tissues were harvested for qualitative analysis as described in Sweeney W E et al. (Kidney Int, 57:33-40, 2000) at postnatal day 21. Briefly, kidney and liver were fixed in 4.0% paraformaldehyde in phosphate buffer (pH 7.4) for 30 min at 4° C. Tissues were then washed, dehydrated through a graded series of acetone, and fixed in Immunobed embedding medium (Polysciences, Warrington, Pa.). Sections were cut at 4 μm, mounted on glass slides, and stained with hematoxylin or lectins staining the proximal tubule [Lotus tetragonobulus agglutinin (LTA)] and collecting tubule [Dolichol biflorus agglutinin (DBA)]. Segmental nephron cyst localization was characterized by light microscopy, and cystic lesions were quantitated by a morphometric index as described in Nakanishi K et al. (J Am Soc Nephrol, 12:719-25, 2001), Richards W G et al. (J Clin Invest, 101:935-9, 1998), Sweeney W E et al. (Kidney Int, 57:33-40, 2000), and Sweeney W E et al. (Kidney Int, 64:1310-9, 2003).
# We administered HET-0016 (10 mg/kg/day), a specific 20-HETE synthesis inhibitor, intraperitoneally on a daily basis from post-natal day 7 to post-natal day 20. On day 21, the mice were sacrificed and the kidneys analyzed. […] Chronic blockade of 20-HETE synthesis lowered the KW/BW ratio to 9.4 in the HET-0016 treated BPK mice (Table 3).
# [1] = test system: 20-HETE synthesis (cytochrome P450 4A and 4F isoforms); assay: 20-HETE production by renal microsomes of BPK mice dosed with HET-0016; type: in vivo, mouse
# Description: Microsomes were isolated from the cystic BPK and non-cystic Balb/C mouse kidneys as described by Ito O et al. (Am J Physiol Regul Integr Comp Physiol, 280:R822-30, 2001). For the BPK and Balb/C cells, protein lysates were harvested by homogenization and subsequent sonication of the cell pellets. For the 20-HETE production assay, the isolated protein (500 μg) was incubated in 0.5 mL of 100 mM potassium phosphate buffer containing 40 μM cold arachidonic acid and 2 mM NADPH. In some samples, the 20-HETE synthesis inhibitor, HET-0016, was added at a concentration of 1 μM. The reaction was incubated at 37° C. and equilibrated with 100% O2 for 30 minutes. The reaction was stopped by acidification to pH 3.5 with 1M formic acid. The lipids were extracted in the presence of 20-HETE-d6 (2 ng) using 3:1 ethyl acetate:water and dried down under nitrogen. The samples were reconstituted in 1:1 methanol:water and the production of 20-HETE was measured using a liquid chromatograph-triple quadrupole mass spectrometer (ABI 3000, Applied Biosystems, Inc., Foster City, Calif.) as described in Williams J M et al. Hypertension, 49:687-94, 2007.
# To further examine the biological role of 20-HETE in the epithelial cell proliferation, post-natal day 7, 10 or 21 day old BPK mice were treated with an intraperitoneal injection of vehicle or HET-0016 (10 mg/kg/day) 2 hours prior to sacrifice at which point the kidneys were removed for measurement of 20-HETE synthesis.
# [2] = BPK (−/−), 10 mg/kg/day i.p., post-natal day 7-20, day 21
substance,measurement,setting,value
N-hydroxy-N-(4-butyl-2-methylphenyl)-formamidine [HET0016],Body weight,BPK mice; [2],10.3 ± 1.0^¥ g
same,Kidney Weight,BPK mice; [2],0.97 ± 0.32 g
same,KW/BW,"BPK mice; BPK (−/−), 10 mg/kg/day i.p., post-natal day 7-20, day 21, 10 mg/kg/day",9.4% and 9.4 ± 3.3 %
same,kidney size,"BPK mice; BPK mice, 10 mg/kg/day chronic daily, vehicle 1.08 g",0.43 g
same,kidney size vs vehicle-treated BPK mice (FIG. 4),"BPK mice; BPK mice, 10 mg/kg/day i.p.",dramatically smaller
same,reduction in body weight vs vehicle,"BPK mice; BPK mice, 10 mg/kg/day i.p.",not statistically significant
same,reduction of KW/BW ratio vs vehicle,"BPK mice; BPK mice, 10 mg/kg/day i.p.",53%
same,reduction of kidney size vs vehicle,"BPK mice; BPK mice, 10 mg/kg/day i.p.",56%
same,size and number of renal cysts (histology),"BPK mice; BPK mice, 10 mg/kg/day, day 21 kidneys, 10 mg/kg/day",marked reductions in the size and number of renal cysts; also recorded: dramatic reduction in the DBA-labeled collecting tubule cysts
same,collecting tubule cystic index (CI),"BPK mice; BPK mice, 10 mg/kg/day, untreated 4.7+/−0.6",1.93+/−0.2
same,effect on other metabolites of arachidonic acid formed by the kidney,[1]; 10 mg/kg/day i.p.,no apparent inhibition
same,inhibition of the formation of 20-HETE,"[1]; 10 mg/kg/day i.p. 2 hours prior to sacrifice, renal microsomes",> 95%
same,production of 20-HETE,"[1]; 10 mg/kg/day i.p. 2 hours prior to sacrifice, renal microsomes, vehicle 1.06±0.33",0.04±0.02 pmoles/min/mg protein
